Target: T1, ubiquitin specific protease 1 (USP1) (Homo sapiens, UniProt O94782)
T1 construct: recombinant USP1/UAF1 complex; with UAF1
Assay: Ub-AMC deubiquitinase activity assay with purified recombinant USP1/UAF1
Format: biochemical

T1 sequence (O94782 whole entry): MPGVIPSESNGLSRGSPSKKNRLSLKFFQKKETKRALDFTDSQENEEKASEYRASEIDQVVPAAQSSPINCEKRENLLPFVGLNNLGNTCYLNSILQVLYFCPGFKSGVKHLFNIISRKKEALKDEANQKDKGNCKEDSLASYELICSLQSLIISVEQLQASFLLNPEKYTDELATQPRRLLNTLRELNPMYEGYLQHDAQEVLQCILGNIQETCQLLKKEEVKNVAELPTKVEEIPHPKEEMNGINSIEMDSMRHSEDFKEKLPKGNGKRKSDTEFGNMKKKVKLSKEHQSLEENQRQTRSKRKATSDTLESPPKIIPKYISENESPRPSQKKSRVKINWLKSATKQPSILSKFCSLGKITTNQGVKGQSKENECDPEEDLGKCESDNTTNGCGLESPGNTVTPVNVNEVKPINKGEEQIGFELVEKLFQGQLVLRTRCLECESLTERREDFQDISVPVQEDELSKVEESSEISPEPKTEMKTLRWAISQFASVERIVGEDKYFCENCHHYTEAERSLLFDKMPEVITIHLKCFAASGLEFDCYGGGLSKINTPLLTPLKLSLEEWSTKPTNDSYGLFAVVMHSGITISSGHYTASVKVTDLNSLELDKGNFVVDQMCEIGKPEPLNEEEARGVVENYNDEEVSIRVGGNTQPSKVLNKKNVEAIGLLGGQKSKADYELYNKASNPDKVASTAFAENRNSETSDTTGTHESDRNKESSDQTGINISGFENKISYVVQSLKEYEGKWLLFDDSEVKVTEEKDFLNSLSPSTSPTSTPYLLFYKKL
T1 sequence (Q8TAF3 whole entry partner): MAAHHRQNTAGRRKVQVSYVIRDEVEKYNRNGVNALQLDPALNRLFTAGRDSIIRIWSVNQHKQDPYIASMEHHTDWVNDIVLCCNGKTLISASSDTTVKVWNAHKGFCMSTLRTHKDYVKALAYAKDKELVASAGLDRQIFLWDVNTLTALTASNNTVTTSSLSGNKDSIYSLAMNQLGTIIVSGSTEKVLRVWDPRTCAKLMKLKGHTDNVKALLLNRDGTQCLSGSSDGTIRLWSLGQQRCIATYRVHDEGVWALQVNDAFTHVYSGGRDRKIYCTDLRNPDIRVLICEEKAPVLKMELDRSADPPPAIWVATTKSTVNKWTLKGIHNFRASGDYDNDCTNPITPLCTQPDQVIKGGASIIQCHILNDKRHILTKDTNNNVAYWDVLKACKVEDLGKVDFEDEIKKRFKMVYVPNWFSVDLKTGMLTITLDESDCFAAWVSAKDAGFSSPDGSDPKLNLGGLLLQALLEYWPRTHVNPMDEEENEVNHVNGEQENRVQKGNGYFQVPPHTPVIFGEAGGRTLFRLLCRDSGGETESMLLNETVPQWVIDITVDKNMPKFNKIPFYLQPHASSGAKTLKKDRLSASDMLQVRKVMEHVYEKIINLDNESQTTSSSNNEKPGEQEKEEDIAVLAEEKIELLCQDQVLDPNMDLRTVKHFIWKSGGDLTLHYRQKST

COc1cc(NC(C)CCCN)c2ncccc2c1 (stereo not shown) [PD, Primaquine diphosphate]
IC50: 25.4 µM
